Test results from patent US6150385A, “1,3,4-thiadiazoles useful for the treatment of CMV infections” (Pharmacia & Upjohn Company, priority 1999, dated 2000).

What follows are molecules tested against T1, HCMV polymerase (Human cytomegalovirus, UniProt P08546) (assay: HCMV polymerase assay (scintillation proximity assay)). Conditions: percentage of inhibition at 25 μM concentration in CMV polymerase assay.
T1 construct: made in house; host or cells: SF-9 insect cells infected with recombinant baculovirus
Type: biochemical
Procedure, shortened: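 Baculovirus/SF-9-expressed HCMV polymerase in 5.4 mM HEPES pH 7.5, 11.7 mM KCl, 4.5 mM MgCl2, 0.36 mg/ml BSA, 90 nM 3H-dTTP, with or without 2 mM CHAPS. Started with 6 nM biotinylated poly(dA)-oligo(dT), 30 min at 25 or 37 °C, EDTA-stopped, read by streptavidin-SPA counting; % inhibition at 25 μM.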

T1 sequence (P08546 whole entry): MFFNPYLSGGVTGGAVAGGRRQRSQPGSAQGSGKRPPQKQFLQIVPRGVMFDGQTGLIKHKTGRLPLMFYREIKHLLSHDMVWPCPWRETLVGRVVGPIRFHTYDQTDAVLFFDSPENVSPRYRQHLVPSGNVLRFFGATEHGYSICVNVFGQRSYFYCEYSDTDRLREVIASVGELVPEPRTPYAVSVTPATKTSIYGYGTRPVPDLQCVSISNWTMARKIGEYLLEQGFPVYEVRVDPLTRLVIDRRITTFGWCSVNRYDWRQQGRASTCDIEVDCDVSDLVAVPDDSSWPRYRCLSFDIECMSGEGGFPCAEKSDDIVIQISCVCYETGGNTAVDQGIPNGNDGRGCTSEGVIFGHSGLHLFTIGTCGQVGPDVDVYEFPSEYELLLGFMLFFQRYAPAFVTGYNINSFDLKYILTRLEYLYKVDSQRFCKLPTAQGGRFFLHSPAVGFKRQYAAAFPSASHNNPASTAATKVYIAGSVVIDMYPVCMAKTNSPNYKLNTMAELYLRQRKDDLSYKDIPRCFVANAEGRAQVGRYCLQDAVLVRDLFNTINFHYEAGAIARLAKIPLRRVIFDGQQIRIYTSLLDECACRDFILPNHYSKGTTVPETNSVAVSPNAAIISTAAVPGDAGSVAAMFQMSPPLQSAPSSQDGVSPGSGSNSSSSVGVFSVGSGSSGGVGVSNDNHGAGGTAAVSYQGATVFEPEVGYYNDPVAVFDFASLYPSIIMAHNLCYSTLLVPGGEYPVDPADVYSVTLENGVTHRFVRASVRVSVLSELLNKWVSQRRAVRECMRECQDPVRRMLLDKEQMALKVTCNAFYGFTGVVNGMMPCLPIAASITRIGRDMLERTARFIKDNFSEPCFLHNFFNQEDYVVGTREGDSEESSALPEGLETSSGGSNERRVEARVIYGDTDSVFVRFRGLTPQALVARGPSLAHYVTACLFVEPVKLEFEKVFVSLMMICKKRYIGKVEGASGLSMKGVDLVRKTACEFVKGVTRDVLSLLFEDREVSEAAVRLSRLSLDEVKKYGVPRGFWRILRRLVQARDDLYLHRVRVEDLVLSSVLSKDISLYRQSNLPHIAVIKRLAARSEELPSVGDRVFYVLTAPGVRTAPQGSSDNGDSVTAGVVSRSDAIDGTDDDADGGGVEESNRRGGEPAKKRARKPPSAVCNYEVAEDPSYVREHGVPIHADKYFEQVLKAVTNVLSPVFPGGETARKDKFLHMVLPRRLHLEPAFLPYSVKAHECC

Going from `O=C(Nc1nnc(NCCCCc2ccccc2)s1)c1ccc(F)cc1F` [compound 197, 2,4-difluoro-N-{5-[(4-phenylbutyl)amino]-1,3,4-thiadiazol-2-yl}benzamide] to `O=C(Nc1nnc(NCCSc2ccccc2)s1)c1ccc(F)cc1F` [compound 205, 2,4-difluoro-N-(5-{[2-(phenylsulfanyl)ethyl]amino}-1,3,4-thiadiazol-2-yl)benzamide], the inhibition at 25 µM falls from 46.2% to 44.9%.

Going from `O=C(Nc1nnc(NCCSc2ccccc2)s1)c1ccc(I)cc1` [compound 198, 4-iodo-N-(5-{[2-(phenylsulfanyl)ethyl]amino}-1,3,4-thiadiazol-2-yl)benzamide] to `CCOc1ccc2ccccc2c1C(=O)Nc1nnc(NCCSc2ccccc2)s1` [compound 206, 2-ethoxy-N-(5-{[2-(phenylsulfanyl)ethyl]amino}-1,3,4-thiadiazol-2-yl)-1-naphthamide], the inhibition at 25 µM falls from 46% to 44.9%.

Compared with `CCCCCCCC/C=C/CCCCCCCC(=O)Nc1nnc(NC2CCC2)s1` [compound 199, (E)-N-[5-(cyclobutylamino)-1,3,4-thiadiazol-2-yl]-9-octadecenamide], `CCCCCCCC/C=C/CCCCCCCC(=O)Nc1nnc(NCc2ccco2)s1` [compound 238, (E)-N-{5-[(2-furylmethyl)amino]-1,3,4-thiadiazol-2-yl}-9-octadecenamide] is lower in inhibition at 25 µM: 46% for the first, 41.5% for the second.

First: O=C(CCCCCl)Nc1nnc(NCc2cccc3ccccc23)s1 [compound 200, 5-chloro-N-{5-[(1-naphthylmethyl)amino]-1,3,4-thiadiazol-2-yl}pentanamide]
Second: O=C(Nc1nnc(NCc2cccc3ccccc23)s1)c1cc2ccccc2s1 [compound 214, N-{5-[(1-naphthylmethyl)amino]-1,3,4-thiadiazol-2-yl}-1-benzothiophene-2-carboxamide]
The inhibition at 25 µM of the first is higher: 45.3% for the first, 44.1% for the second.

First: O=C(Nc1nnc(NC2CCCCCC2)s1)c1cccc([N+](=O)[O-])c1 [compound 201, N-[5-(cycloheptylamino)-1,3,4-thiadiazol-2-yl]-3-nitrobenzamide]
Second: O=C(Nc1nnc(NCCCNC2CCCCC2)s1)c1ccc(I)cc1 [compound 212, N-(5-{[3-(cyclohexylamino)propyl]amino}-1,3,4-thiadiazol-2-yl)-4-iodobenzamide]
The inhibition at 25 µM of the first is higher: 45.3% for the first, 44.2% for the second.

First: O=C(Nc1nnc(NCCCn2ccnc2)s1)c1ccc(Cl)c(Cl)c1 [compound 202, 3,4-dichloro-N-(5-{[3-(1H-imidazol-1-yl)propyl]amino}-1,3,4-thiadiazol-2-yl)benzamide]
Second: O=C(/C=C/c1ccccc1Cl)Nc1nnc(NCCCn2ccnc2)s1 [compound 221, (E)-3-(2-chlorophenyl)-N-(5-{[3-(1H-imidazol-1-yl)propyl]amino}-1,3,4-thiadiazol-2-yl)-2-propenamide]
The inhibition at 25 µM of the first is higher: 45% for the first, 43.5% for the second.

Compared with `O=C(Nc1nnc(NCCCN2CCCC2=O)s1)c1ccc(I)cc1` [compound 203, 4-iodo-N-(5-{[3-(2-oxo-1-pyrrolidinyl)propyl]amino}-1,3,4-thiadiazol-2-yl)benzamide], `O=C(Nc1nnc(NCCCN2CCCC2=O)s1)c1cc(F)cc(F)c1` [compound 228, 3,5-difluoro-N-(5-{[3-(2-oxo-1-pyrrolidinyl)propyl]amino}-1,3,4-thiadiazol-2-yl)benzamide] is lower in inhibition at 25 µM: 45% for the first, 42.8% for the second.

First: CCOc1ccc2ccccc2c1C(=O)Nc1nnc(NCc2ccc(Cl)c(Cl)c2)s1 [compound 207, N-{5-[(3,4-dichlorobenzyl)amino]-1,3,4-thiadiazol-2-yl}-2-ethoxy-1-naphthamide]
Second: CCOc1ccc2ccccc2c1C(=O)Nc1nnc(NCc2ccco2)s1 [compound 213, 2-ethoxy-N-{5-[(2-furylmethyl)amino]-1,3,4-thiadiazol-2-yl}-1-naphthamide]
The inhibition at 25 µM of the first is higher: 44.7% for the first, 44.2% for the second.

First: O=C(/C=C/c1ccccc1Cl)Nc1nnc(NCCCN2CCCC2=O)s1 [compound 208, (E)-3-(2-chlorophenyl)-N-(5-{[3-(2-oxo-1-pyrrolidinyl)propyl]amino}-1,3,4-thiadiazol-2-yl)-2-propenamide]
Second: O=C(/C=C/c1ccccc1Cl)Nc1nnc(NCCc2ccccc2)s1 [compound 210, (E)-3-(2-chlorophenyl)-N-[5-(phenethylamino)-1,3,4-thiadiazol-2-yl]-2-propenamide]
The inhibition at 25 µM of the first is higher: 44.7% for the first, 44.6% for the second.

Compared with `CC1(C)C2CC[C@@H](CNc3nnc(NC(=O)c4ccc([N+](=O)[O-])o4)s3)C1C2` (stereo partly drawn) [compound 209, N-[5-({[(2R)-6,6-dimethylbicyclo[3.1.1]hept-2-yl]methyl}amino)-1,3,4-thiadiazol-2-yl]-5-nitro-2-furamide], `CCOc1ccc2ccccc2c1C(=O)Nc1nnc(NC2CC2)s1` [compound 227, N-[5-(cyclopropylamino)-1,3,4-thiadiazol-2-yl]-2-ethoxy-1-naphthamide] is lower in inhibition at 25 µM: 44.7% for the first, 42.8% for the second.

Going from `CCSCCNc1nnc(NC(=O)/C=C/c2ccccc2)s1` [compound 211, (E)-N-(5-{[2-(ethylsulfanyl)ethyl]amino}-1,3,4-thiadiazol-2-yl)-3-phenyl-2-propenamide] to `O=C(/C=C/c1ccccc1)Nc1nnc(NCCc2c[nH]cn2)s1` [compound 215, (E)-N-(5-{[2-(1H-imidazol-4-yl)ethyl]amino}-1,3,4-thiadiazol-2-yl)-3-phenyl-2-propenamide], the inhibition at 25 µM falls from 44.3% to 44.1%.

Going from `CCCCCCCCCCCNc1nnc(NC(=O)/C=C/c2ccccc2Cl)s1` [compound 216, (E)-3-(2-chlorophenyl)-N-[5-(undecylamino)-1,3,4-thiadiazol-2-yl]-2-propenamide] to `O=C(Nc1nnc(NCCCCc2ccccc2)s1)c1c(Cl)cccc1Cl` [compound 225, 2,6-dichloro-N-{5-[(4-phenylbutyl)amino]-1,3,4-thiadiazol-2-yl}benzamide], the inhibition at 25 µM falls from 43.9% to 42.9%.

Going from `O=C(Nc1nnc(NC2CCN(Cc3ccccc3)CC2)s1)c1cc2ccccc2s1` [compound 218, N-{5-[(1-benzyl-4-piperidinyl)amino]-1,3,4-thiadiazol-2-yl}-1-benzothiophene-2-carboxamide] to `O=C(Nc1nnc(NCCNc2ccccc2)s1)c1cc2ccccc2s1` [compound 236, N-{5-[(2-anilinoethyl)amino]-1,3,4-thiadiazol-2-yl}-1-benzothiophene-2-carboxamide], the inhibition at 25 µM falls from 43.6% to 41.6%.

First: CC(C)c1cc(C(C)C)c(C(=O)Nc2nnc(NCCc3c[nH]c4ccccc34)s2)c(C(C)C)c1 [compound 219, N-(5-{[2-(1H-indol-3-yl)ethyl]amino}-1,3,4-thiadiazol-2-yl)-2,4,6-triisopropylbenzamide]
Second: CC(C)c1cc(C(C)C)c(C(=O)Nc2nnc(NCCN3CCCCC3)s2)c(C(C)C)c1 [compound 232, 2,4,6-triisopropyl-N-{5-[(2-piperidinoethyl)amino]-1,3,4-thiadiazol-2-yl}benzamide]
The inhibition at 25 µM of the first is higher: 43.6% for the first, 42.2% for the second.

Going from `O=C(/C=C/c1ccccc1)Nc1nnc(NCCN2CCOCC2)s1` [compound 220, (E)-N-{5-[(2-morpholinoethyl)amino]-1,3,4-thiadiazol-2-yl}-3-phenyl-2-propenamide] to `O=C(Nc1nnc(NCCc2cccs2)s1)c1cc2ccccc2s1` [compound 234, N-(5-{[2-(2-thienyl)ethyl]amino}-1,3,4-thiadiazol-2-yl)-1-benzothiophene-2-carboxamide], the inhibition at 25 µM falls from 43.6% to 42%.

First: O=C(Nc1nnc(NCc2ccncc2)s1)c1cc2ccccc2s1 [compound 222, N-{5-[(4-pyridinylmethyl)amino]-1,3,4-thiadiazol-2-yl}-1-benzothiophene-2-carboxamide]
Second: O=C(Nc1nnc(NCc2cccs2)s1)c1cc2ccccc2s1 [compound 237, N-{5-[(2-thienylmethyl)amino]-1,3,4-thiadiazol-2-yl}-1-benzothiophene-2-carboxamide]
The inhibition at 25 µM of the first is higher: 43.2% for the first, 41.5% for the second.

Going from `NS(=O)(=O)c1ccc(CNc2nnc(NC(=O)c3cc4ccccc4s3)s2)cc1` [compound 223, N-(5-{[4-(aminosulfonyl)benzyl]amino}-1,3,4-thiadiazol-2-yl)-1-benzothiophene-2-carboxamide] to `Cc1ccc(C(=O)Nc2nnc(NCCc3ccc(S(N)(=O)=O)cc3)s2)cc1` [compound 230, N-(5-{[4-(aminosulfonyl)phenethyl]amino}-1,3,4-thiadiazol-2-yl)-4-methylbenzamide], the inhibition at 25 µM falls from 43.1% to 42.3%.

Compared with `COc1ccccc1C(=O)Nc1nnc(NCC(c2ccccc2)c2ccccc2)s1` [compound 224, N-{5-[(2,2-diphenylethyl)amino]-1,3,4-thiadiazol-2-yl}-2-methoxybenzamide], `O=C(Nc1nnc(NCCC(c2ccccc2)c2ccccc2)s1)c1cccc([N+](=O)[O-])c1` [compound 226, N-{5-[(3,3-diphenylpropyl)amino]-1,3,4-thiadiazol-2-yl}-3-nitrobenzamide] is lower in inhibition at 25 µM: 43% for the first, 42.9% for the second.

Compared with `CCOc1ccc2ccccc2c1C(=O)Nc1nnc(NCCCCc2ccccc2)s1` [compound 231, 2-ethoxy-N-{5-[(4-phenylbutyl)amino]-1,3,4-thiadiazol-2-yl}-1-naphthamide], `CCOc1ccc2ccccc2c1C(=O)Nc1nnc(NCC(C)(C)C)s1` [compound 233, 2-ethoxy-N-[5-(neopentylamino)-1,3,4-thiadiazol-2-yl]-1-naphthamide] is lower in inhibition at 25 µM: 42.3% for the first, 42.1% for the second.

Going from `O=C(Nc1nnc(NCCNc2ccccc2)s1)c1ccc(S(=O)(=O)F)cc1` [compound 204, 4-[({5-[(2-anilinoethyl)amino]-1,3,4-thiadiazol-2-yl}amino)carbonyl]benzenesulfonyl fluoride] to `O=C(Nc1nnc(NCCC(c2ccccc2)c2ccccc2)s1)c1ccc(S(=O)(=O)F)cc1` [compound 217, 4-[({5-[(3,3-diphenylpropyl)amino]-1,3,4-thiadiazol-2-yl}amino)carbonyl]benzenesulfonyl fluoride], the “% Inhib” value falls from 45.0% to 43.9%.
